This note sets out measurements from US6472348B1, “Pyridone derivatives and herbicides” (Kumiai Chemical Industry Co., Ltd., priority 1996, dated 2002).

Common to all, as to assay type: in vivo
Test [1] deals with barnyardgrass (Ec). Put plainly: Test Example 1: herbicidal effects by paddy field soil treatment.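 Also: grade of growth control; 5 = at least 90%; 4 = 70 to 90%; 3 = 50 to 70%; 2 = 30 to 50%; 1 = 10 to 30%; 0 = under 10%.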 The note with it: 100 g of the active ingredient per 10 ares, 21st day after the application, index 0-5 of Table 47. As for the experimental part:
(§1) (Test on Herbicidal Effects by Paddy Field Soil Treatment)
(§2) In a plastic pot (surface area: 100 cm^2) filled with paddy field soil, barnyardgrass (Ec), monochoria (Mo) and bulrush (Sc) were sown after puddling and leveling, and flooded to a water depth of 3 cm. […] The dose was 100 g of the active ingredient per 10 ares. The plants were then cultured in a green house, and the evaluation of the herbicidal effects was conducted on the 21st day after the application in accordance with the standards as identified in Table 47.

The next test relates to bulrush (Sc). The description is as above. The following applies: 100 g of the active ingredient per 10 ares, 21st day after the application, index 0-5 of Table 47. As for the experimental part:
as §1, §2

In another test the test system is monochoria (Mo). The test is described as above. The note with it: 100 g of the active ingredient per 10 ares, 21st day after the application, index 0-5 of Table 47. As for the experimental part:
as §1, §2

The next test has as its system Diaitaria ciliaris (Di). Put plainly: Test Example 3: herbicidal effects by upland field foliage treatment. On the set-up: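 grade of growth control; 5 = at least 90%; 4 = 70 to 90%; 3 = 50 to 70%; 2 = 30 to 50%; 1 = 10 to 30%; 0 = under 10%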. The note with it: 100 g of the active ingredient per 10 ares, evaluated on the 14th day after treatment. As for the experimental part:
(§3) (Test on Herbicidal Effects by Upland Field Foliage Treatment)
(§4) In a plastic pot (surface area: 120 cm^2) filled with sand, barnyardgrass (Ec), Diaitaria ciliaris (Di), pale smartweed (Po), slender amaranth (Am), common lambsquarters (Ch) and rice flatsedge (Ci) were sown and covered with soil and were cultured in a green house for 2 weeks. […] The plants were then cultured in the green house, and the evaluation of the herbicidal effects was conducted on the 14th day after the treatment in accordance with the standards as identified in Table 47. Symbol—represents “not tested”.

Test [2] has as its system barnyardgrass (Ec). The test is described as above. Also noted: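 grade of growth control; 5 = at least 90%; 4 = 70 to 90%; 3 = 50 to 70%; 2 = 30 to 50%; 1 = 10 to 30%; 0 = under 10%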. The note with it: 100 g of the active ingredient per 10 ares, evaluated on the 14th day after treatment. As for the experimental part:
as §3, §4

For test [3], the system named is common lambsquarters (Ch). The description is as above. Also noted: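 grade of growth control; 5 = at least 90%; 4 = 70 to 90%; 3 = 50 to 70%; 2 = 30 to 50%; 1 = 10 to 30%; 0 = under 10%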. The following applies: 100 g of the active ingredient per 10 ares, evaluated on the 14th day after treatment. How it is done: as §3, §4
For another test, the system named is pale smartweed (Po). The description is as above. On the set-up: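 grade of growth control; 5 = at least 90%; 4 = 70 to 90%; 3 = 50 to 70%; 2 = 30 to 50%; 1 = 10 to 30%; 0 = under 10%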. The following applies: 100 g of the active ingredient per 10 ares, evaluated on the 14th day after treatment. How it is done: as §3, §4
In a further test the test system is rice flatsedge (Ci). Described as above. On the set-up: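 grade of growth control; 5 = at least 90%; 4 = 70 to 90%; 3 = 50 to 70%; 2 = 30 to 50%; 1 = 10 to 30%; 0 = under 10%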. The note with it: 100 g of the active ingredient per 10 ares, evaluated on the 14th day after treatment. As for the experimental part: as §3, §4
In a further test the test system is slender amaranth (Am). The test is described as above. On the set-up: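 grade of growth control; 5 = at least 90%; 4 = 70 to 90%; 3 = 50 to 70%; 2 = 30 to 50%; 1 = 10 to 30%; 0 = under 10%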. The note with it: 100 g of the active ingredient per 10 ares, evaluated on the 14th day after treatment. As for the experimental part:
as §3, §4
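For Herbicidal effects Mo in this document: grade of growth control; 5 = at least 90%; 4 = 70 to 90%; 3 = 50 to 70%; 2 = 30 to 50%; 1 = 10 to 30%; 0 = under 10%.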
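For Herbicidal effects Sc in this document: grade of growth control; 5 = at least 90%; 4 = 70 to 90%; 3 = 50 to 70%; 2 = 30 to 50%; 1 = 10 to 30%; 0 = under 10%.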

For `Cn1c(C(F)(F)F)ccc(-c2cc(NS(C)(=O)=O)c(Cl)cc2Cl)c1=O` [1-75], in the test with barnyardgrass (Ec) [1], the “Herbicidal effects Ec” value stood at 5. The “Herbicidal effects Sc” value with bulrush (Sc) is reported as 5. The “Herbicidal effects Mo” value with monochoria (Mo) worked out at 5.
In the case of `Cc1cc(-c2ccc(Cl)cc2Cl)c(=O)[nH]c1C(F)(F)F` [1-97], the “Herbicidal effects Ec” value in the test on barnyardgrass (Ec) [1] is reported as 5. In the test with bulrush (Sc), the “Herbicidal effects Sc” value came to 5. In addition, the “Herbicidal effects Mo” value in the test with monochoria (Mo) worked out at 5.
`CCOC(=O)COc1cc(-c2ccc(C(F)(F)F)n(C)c2=O)ccc1Cl` [1-107]: the “Herbicidal effects Ec” value in the test on barnyardgrass (Ec) [1] amounted to 5. For the same compound, the “Herbicidal effects Sc” value in the test with bulrush (Sc) was 5. Besides, the “Herbicidal effects Mo” value in the test with monochoria (Mo) came out at 5.
Regarding `Cn1c(C(F)(F)F)ccc(-c2ccc(Cl)c(SCC(=O)OC3CCCC3)c2)c1=O` [1-115], the “Herbicidal effects Ec” value in the test with barnyardgrass (Ec) [1] is on record as 5. Also, the “Herbicidal effects Sc” value with bulrush (Sc) was 5. Moreover, the “Herbicidal effects Mo” value with monochoria (Mo) worked out at 5.
With `CCCCCOC(=O)CSc1cc(-c2ccc(C(F)(F)F)n(C)c2=O)c(Cl)cc1Cl` [1-123], the results for the “Herbicidal effects Ec” value in the test on barnyardgrass (Ec) [1] and in the test with barnyardgrass (Ec) [2] were 5 and 4, respectively. In addition, the “Herbicidal effects Sc” value in the test on bulrush (Sc) is reported as 5. Moreover, the “Herbicidal effects Mo” value in the test on monochoria (Mo) worked out at 5. For the same compound, in the test on Diaitaria ciliaris (Di), the “Herbicidal effects Di” value came out at 5. The “Herbicidal effects Ch” value in test [3] is reported as 5. In addition, the “Herbicidal effects Po” value in the test on pale smartweed (Po) is 5. In the test on rice flatsedge (Ci), the “Herbicidal effects Ci” value was found to be 5. The “Herbicidal effects Am” value with slender amaranth (Am) stood at 5.
As for `Cn1c(C(F)(F)F)ccc(-c2cc(SC3CCCC3)c(Cl)cc2Cl)c1=O` [1-128], in the test on barnyardgrass (Ec) [1], the “Herbicidal effects Ec” value was 5. Further, the “Herbicidal effects Sc” value in the test on bulrush (Sc) was determined as 4. Moreover, the “Herbicidal effects Mo” value in the test on monochoria (Mo) is 5.
Consider `CC(C)OCCOC(=O)CSc1cc(-c2ccc(C(F)(F)F)n(C)c2=O)c(Cl)cc1Cl` [1-129], for which, in the test on Diaitaria ciliaris (Di), the “Herbicidal effects Di” value turned out to be 5. Besides, in the test with barnyardgrass (Ec) [2], the “Herbicidal effects Ec” value is 5. Also, in [3], the “Herbicidal effects Ch” value came to 5. For the same compound, in the test with pale smartweed (Po), the “Herbicidal effects Po” value turned out to be 5. Further, the “Herbicidal effects Ci” value in the test on rice flatsedge (Ci) came out at 5. Moreover, the “Herbicidal effects Am” value with slender amaranth (Am) was found to be 5.
Turning to `CCCOC(=O)CSc1cc(-c2ccc(C(F)(F)F)n(C)c2=O)c(Cl)cc1Cl` [1-130], the “Herbicidal effects Ec” value in the test on barnyardgrass (Ec) [1] was 5. Further, in the test with bulrush (Sc), the “Herbicidal effects Sc” value came to 5. The “Herbicidal effects Mo” value in the test with monochoria (Mo) amounted to 5.
For `Cn1c(C(F)(F)F)ccc(-c2cc(C(=O)NS(C)(=O)=O)c(Cl)cc2F)c1=O` [1-147], the “Herbicidal effects Ec” value in the test on barnyardgrass (Ec) [1] is recorded as 5. The “Herbicidal effects Sc” value in the test with bulrush (Sc) was 5. The “Herbicidal effects Mo” value with monochoria (Mo) is listed as 5.
Take `COC(=O)Oc1cc(-c2ccc(C(F)(F)F)n(C)c2=O)c(F)cc1Cl` [1-153]: the “Herbicidal effects Ec” value in the test on barnyardgrass (Ec) [1] is 5. Also, the “Herbicidal effects Sc” value in the test on bulrush (Sc) was 5. The “Herbicidal effects Mo” value in the test with monochoria (Mo) is reported as 5.
On to `Cn1c(C(F)(F)F)ccc(-c2ccc3c(c2)NC(=O)CO3)c1=O` [2-30], for which the “Herbicidal effects Ec” value in the test with barnyardgrass (Ec) [1] is given as 5. Further, the “Herbicidal effects Sc” value in the test with bulrush (Sc) is reported as 5. The “Herbicidal effects Mo” value in the test on monochoria (Mo) was determined as 5.
In the case of `Cn1c(C(F)(F)F)ccc(-c2cc(OC3CCCO3)c(Cl)cc2Cl)c1=O` (stereo not drawn) [Compound 1-212], the “Herbicidal effects Ec” value in the test on barnyardgrass (Ec) [1] came out at 5. Also, in the test with bulrush (Sc), the “Herbicidal effects Sc” value is reported as 4. In addition, in the test on monochoria (Mo), the “Herbicidal effects Mo” value turned out to be 5.
On to `Cn1c(C(F)(F)F)ccc(-c2cc3c(cc2F)OCC(=O)N3CC2CO2)c1=O` (stereo not drawn) [Compound 2-20], for which the “Herbicidal effects Ec” value in the test on barnyardgrass (Ec) [1] is 5. Moreover, the “Herbicidal effects Sc” value with bulrush (Sc) was found to be 5. For the same compound, in the test on monochoria (Mo), the “Herbicidal effects Mo” value came to 5.
Take `Cn1cc(-c2ccc(Cl)cc2)c(=O)cc1C(F)(F)F` [Compound 6-1]: in the test with barnyardgrass (Ec) [1], the “Herbicidal effects Ec” value is reported as 5. In addition, in the test on bulrush (Sc), the “Herbicidal effects Sc” value is listed as 5. The “Herbicidal effects Mo” value with monochoria (Mo) was 5.
For `CCOC(=O)C(Cl)Cc1cc(-c2ccc(C(F)(F)F)n(C)c2=O)c(F)cc1Cl` (stereo not drawn) [Compound No. 1-139, ethyl 2-chloro-3-[2-chloro-4-fluoro-5-(1methyl-6-trifluoromethyl-2(1H)pyridon-3-yl)]phenyl propionate], in the test with Diaitaria ciliaris (Di), the “Herbicidal effects Di” value is reported as 5. In addition, in the test with barnyardgrass (Ec) [2], the “Herbicidal effects Ec” value was determined as 5. The “Herbicidal effects Ch” value in test [3] was 5. For the same compound, the “Herbicidal effects Po” value with pale smartweed (Po) is 5. The “Herbicidal effects Ci” value in the test with rice flatsedge (Ci) worked out at 5. In the test on slender amaranth (Am), the “Herbicidal effects Am” value stood at 5.
